Data taken from PubChem BioAssay (NCI).
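A five-concentration, 48-hour dose response in 96-well plates underlies each endpoint, interpolated linearly between surrounding concentrations. TGI: total growth inhibition.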

Columns and labels:
Assay in all cases: NCI-60 cell line screen, 48 h
[1] = tested on: 786-0 renal
[2] = tested on: A498 renal
[3] = tested on: A549 NSCLC
[4] = tested on: ACHN renal
[5] = tested on: BT-549 breast
[6] = tested on: CAKI-1 renal
[7] = tested on: CCRF-CEM leukemia
[8] = tested on: COLO 205 colon
[9] = tested on: DU-145 prostate
[10] = tested on: EKVX NSCLC
[11] = tested on: HCC-2998 colon
[12] = tested on: HCT-116 colon
[13] = tested on: HCT-15 colon
[14] = tested on: HL-60(TB) leukemia
[15] = tested on: HOP-62 NSCLC
[16] = tested on: HOP-92 NSCLC
[17] = tested on: HS 578T breast
[18] = tested on: HT29 colon
[19] = tested on: IGROV1 ovarian
[20] = tested on: K-562 leukemia
[21] = tested on: KM12 colon
[22] = tested on: LOX IMVI melanoma
[23] = tested on: M14 melanoma
[24] = tested on: MALME-3M melanoma
[25] = tested on: MCF7 breast
[26] = tested on: MDA-MB-231 breast
[27] = tested on: MDA-MB-435
[28] = tested on: MDA-N
[29] = tested on: MOLT-4 leukemia
[30] = tested on: NCI-H226 lung
[31] = tested on: NCI-H23 lung
[32] = tested on: NCI-H460 lung
[33] = tested on: NCI/ADR-RES ovarian
[34] = tested on: OVCAR-3 ovarian
[35] = tested on: OVCAR-4 ovarian
[36] = tested on: OVCAR-5 ovarian
[37] = tested on: OVCAR-8 ovarian
[38] = tested on: PC-3 prostate
[39] = tested on: RPMI-8226 leukemia
[40] = tested on: RXF 393 renal
[41] = tested on: SF-268 CNS
[42] = tested on: SF-295 CNS
[43] = tested on: SF-539 CNS
[44] = tested on: SK-MEL-2 melanoma
[45] = tested on: SK-MEL-28 melanoma
[46] = tested on: SK-MEL-5 melanoma
[47] = tested on: SK-OV-3 ovarian
[48] = tested on: SN12C renal
[49] = tested on: SNB-19 CNS
[50] = tested on: SNB-75 CNS
[51] = tested on: SR leukemia
[52] = tested on: SW-620 colon
[53] = tested on: T-47D breast
[54] = tested on: TK-10 renal
[55] = tested on: U251 CNS
[56] = tested on: UACC-257 melanoma
[57] = tested on: UACC-62 melanoma
[58] = tested on: UO-31 renal
[59] = tested on: NCI-H522 lung

## CCOP(=O)(OCC)C(C#N)Cc1ccco1 (stereo unspecified)
[1]
  TGI: > 10 µM
[2]
  TGI: > 10 µM
[3]
  TGI: > 10 µM
[4]
  TGI: > 10 µM
[5]
  TGI: > 10 µM
[6]
  TGI: > 10 µM
[7]
  TGI: > 10 µM
[8]
  TGI: > 10 µM
[9]
  TGI: > 10 µM
[10]
  TGI: > 10 µM
[11]
  TGI: > 10 µM
[12]
  TGI: > 10 µM
[13]
  TGI: > 10 µM
[14]
  TGI: > 10 µM
[15]
  TGI: > 10 µM
[16]
  TGI: > 10 µM
[17]
  TGI: > 10 µM
[18]
  TGI: > 10 µM
[19]
  TGI: > 10 µM
[20]
  TGI: > 10 µM
[21]
  TGI: > 10 µM
[22]
  TGI: > 10 µM
[23]
  TGI: > 10 µM
[24]
  TGI: > 10 µM
[25]
  TGI: > 10 µM
[26]
  TGI: > 10 µM
[27]
  TGI: > 10 µM
[28]
  TGI: > 10 µM
[29]
  TGI: > 10 µM
[30]
  TGI: > 10 µM
[31]
  TGI: > 10 µM
[32]
  TGI: > 10 µM
[33]
  TGI: > 10 µM
[34]
  TGI: > 10 µM
[35]
  TGI: > 10 µM
[36]
  TGI: > 10 µM
[37]
  TGI: > 10 µM
[38]
  TGI: > 10 µM
[39]
  TGI: > 10 µM
[40]
  TGI: > 10 µM
[41]
  TGI: > 10 µM
[42]
  TGI: > 10 µM
[43]
  TGI: > 10 µM
[44]
  TGI: > 10 µM
[45]
  TGI: > 10 µM
[46]
  TGI: > 10 µM
[47]
  TGI: > 10 µM
[48]
  TGI: > 10 µM
[49]
  TGI: > 10 µM
[50]
  TGI: > 10 µM
[51]
  TGI: > 10 µM
[52]
  TGI: > 10 µM
[53]
  TGI: > 10 µM
[54]
  TGI: > 10 µM
[55]
  TGI: > 10 µM
[56]
  TGI: > 10 µM
[57]
  TGI: > 10 µM
[58]
  TGI: > 10 µM

## COC(=O)[C@H](Cc1c[nH]c2ccccc12)NC(=O)c1ccc(CNC(=O)/C=C/c2cccc(Oc3ccccc3)c2)cc1
[1]
  TGI: > 100 µM
[2]
  TGI: > 100 µM
[3]
  TGI: > 100 µM
[4]
  TGI: > 100 µM
[5]
  TGI: > 100 µM
[6]
  TGI: > 100 µM
[7]
  TGI: > 100 µM
[8]
  TGI: > 100 µM
[9]
  TGI: > 100 µM
[10]
  TGI: > 100 µM
[11]
  TGI: > 100 µM
[12]
  TGI: > 100 µM
[13]
  TGI: > 100 µM
[15]
  TGI: > 100 µM
[16]
  TGI: > 100 µM
[17]
  TGI: > 100 µM
[18]
  TGI: > 100 µM
[19]
  TGI: > 100 µM
[20]
  TGI: > 100 µM
[21]
  TGI: > 100 µM
[23]
  TGI: > 100 µM
[24]
  TGI: > 100 µM
[25]
  TGI: > 100 µM
[26]
  TGI: > 100 µM
[27]
  TGI: 27.8 µM
[28]
  TGI: 23.9 µM
[29]
  TGI: > 100 µM
[30]
  TGI: > 100 µM
[31]
  TGI: > 100 µM
[32]
  TGI: > 100 µM
[33]
  TGI: > 100 µM
[34]
  TGI: > 100 µM
[35]
  TGI: > 100 µM
[36]
  TGI: > 100 µM
[37]
  TGI: > 100 µM
[38]
  TGI: > 100 µM
[39]
  TGI: > 100 µM
[40]
  TGI: 81.6 µM
[41]
  TGI: > 100 µM
[42]
  TGI: > 100 µM
[44]
  TGI: 82.8 µM
[45]
  TGI: > 100 µM
[46]
  TGI: > 100 µM
[47]
  TGI: > 100 µM
[48]
  TGI: > 100 µM
[49]
  TGI: > 100 µM
[50]
  TGI: > 100 µM
[51]
  TGI: > 100 µM
[52]
  TGI: > 100 µM
[53]
  TGI: > 100 µM
[54]
  TGI: > 100 µM
[55]
  TGI: > 100 µM
[56]
  TGI: 40.3 µM
[57]
  TGI: > 100 µM
[58]
  TGI: > 100 µM

## CCCCCCCCCCCCCCCC(=O)N(CCCCCCCCCCC(=O)O)CC(O)C(O)C(OC1OC(CO)C(O)C(O)C1O)C(O)CO (stereo unspecified)
[1]
  TGI: > 100 µM
[2]
  TGI: > 100 µM
[3]
  TGI: > 100 µM
[4]
  TGI: > 100 µM
[5]
  TGI: 68 µM
[6]
  TGI: > 100 µM
[7]
  TGI: 45.7 µM
[8]
  TGI: 32.6 µM
[9]
  TGI: > 100 µM
[10]
  TGI: > 100 µM
[11]
  TGI: 49.5 µM
[12]
  TGI: > 100 µM
[13]
  TGI: > 100 µM
[14]
  TGI: 47.7 µM
[15]
  TGI: 75.8 µM
[16]
  TGI: > 100 µM
[17]
  TGI: > 100 µM
[18]
  TGI: 42.8 µM
[19]
  TGI: > 100 µM
[20]
  TGI: 41.4 µM
[21]
  TGI: 34 µM
[22]
  TGI: 35.1 µM
[23]
  TGI: 50.2 µM
[24]
  TGI: 36.3 µM
[25]
  TGI: > 100 µM
[26]
  TGI: > 100 µM
[27]
  TGI: > 100 µM
[28]
  TGI: > 100 µM
[29]
  TGI: 46.4 µM
[30]
  TGI: > 100 µM
[31]
  TGI: > 100 µM
[32]
  TGI: > 100 µM
[59]
  TGI: > 100 µM
[33]
  TGI: 61.1 µM
[34]
  TGI: > 100 µM
[35]
  TGI: > 100 µM
[36]
  TGI: > 100 µM
[37]
  TGI: 66 µM
[38]
  TGI: > 100 µM
[39]
  TGI: 49.8 µM
[40]
  TGI: > 100 µM
[41]
  TGI: 48.9 µM
[42]
  TGI: 33.4 µM
[43]
  TGI: 54.9 µM
[44]
  TGI: 43.5 µM
[45]
  TGI: 34.6 µM
[46]
  TGI: > 100 µM
[47]
  TGI: > 100 µM
[48]
  TGI: 40.1 µM
[49]
  TGI: 52.9 µM
[50]
  TGI: > 100 µM
[51]
  TGI: 49.9 µM
[52]
  TGI: 52.5 µM
[53]
  TGI: > 100 µM
[54]
  TGI: > 100 µM
[55]
  TGI: 32.9 µM
[56]
  TGI: 55.7 µM
[57]
  TGI: 34.7 µM
[58]
  TGI: > 100 µM

## CCN(CC)CCNC(=O)c1cn2c(ccc3sc4ccccc4c(=O)c32)n1
[1]
  TGI: 19.5 µM
[2]
  TGI: 33.4 µM
[3]
  TGI: 21 µM
[4]
  TGI: 18.6 µM
[5]
  TGI: 28.5 µM
[6]
  TGI: 24.2 µM
[7]
  TGI: 25.3 µM
[8]
  TGI: 21.1 µM
[9]
  TGI: 25 µM
[10]
  TGI: 35.3 µM
[11]
  TGI: 24.3 µM
[12]
  TGI: 20.7 µM
[13]
  TGI: 21.2 µM
[14]
  TGI: 25.4 µM
[15]
  TGI: 21.4 µM
[16]
  TGI: 24.6 µM
[17]
  TGI: 34.6 µM
[18]
  TGI: 20.4 µM
[19]
  TGI: 21.3 µM
[20]
  TGI: 36.8 µM
[21]
  TGI: 24.9 µM
[22]
  TGI: > 48.9 µM
[23]
  TGI: 29 µM
[24]
  TGI: 26.9 µM
[25]
  TGI: 38.2 µM
[26]
  TGI: 27.5 µM
[27]
  TGI: 54 µM
[28]
  TGI: 28.4 µM
[29]
  TGI: 11.9 µM
[30]
  TGI: 40.6 µM
[31]
  TGI: 28.4 µM
[32]
  TGI: 14.9 µM
[59]
  TGI: 25.6 µM
[33]
  TGI: 27.8 µM
[34]
  TGI: 26.7 µM
[35]
  TGI: 22.8 µM
[36]
  TGI: 21.7 µM
[37]
  TGI: 31.8 µM
[38]
  TGI: 23.4 µM
[39]
  TGI: 29 µM
[40]
  TGI: 24.2 µM
[41]
  TGI: 24.8 µM
[42]
  TGI: 23.9 µM
[43]
  TGI: 24.9 µM
[44]
  TGI: 38 µM
[45]
  TGI: 25.6 µM
[46]
  TGI: 22.9 µM
[47]
  TGI: 25.5 µM
[48]
  TGI: 23.7 µM
[49]
  TGI: 27.5 µM
[50]
  TGI: 32.6 µM
[51]
  TGI: 26.6 µM
[52]
  TGI: 20.3 µM
[53]
  TGI: 30 µM
[54]
  TGI: 19.1 µM
[55]
  TGI: > 51.6 µM
[56]
  TGI: 30.1 µM
[57]
  TGI: 29.1 µM
[58]
  TGI: 21 µM
